Measurements taken from patent US10266548B2, “Substituted benzylindazoles for use as Bub1 kinase inhibitors in the treatment of hyperproliferative diseases” (Bayer Intellectual Property GmbH, priority 2011, dated 2019).
“And” between values parts separate entries of the source, which are not always exact repeats. Identical values can stand only once. Like-named read-outs stand apart in the source and are kept apart here.

Experiments:
[1] = target: catalytic domain of human Bub1 (amino acids 704-1085) (Homo sapiens (Human), UniProt O43683); test: Bub1 kinase assay (TR-FRET); assay type: biochemical; conditions: 10 μM ATP, 1 μM peptide substrate; read-out: Biological Assay 1: Bub1 kinase assay median IC50
Sequence of catalytic domain of human Bub1 (amino acids 704-1085) (O43683 704-1085): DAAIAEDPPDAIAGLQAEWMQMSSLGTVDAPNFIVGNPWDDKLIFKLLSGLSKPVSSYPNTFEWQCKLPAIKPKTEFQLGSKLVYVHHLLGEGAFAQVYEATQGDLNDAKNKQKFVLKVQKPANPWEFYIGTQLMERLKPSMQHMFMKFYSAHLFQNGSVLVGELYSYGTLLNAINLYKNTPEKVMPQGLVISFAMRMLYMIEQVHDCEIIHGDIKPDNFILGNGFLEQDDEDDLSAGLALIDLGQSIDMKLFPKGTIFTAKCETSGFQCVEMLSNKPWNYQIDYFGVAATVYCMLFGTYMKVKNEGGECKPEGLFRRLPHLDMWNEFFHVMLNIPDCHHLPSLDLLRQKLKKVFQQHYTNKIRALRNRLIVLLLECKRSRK
In short: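 Phosphoserine product detected by TR-FRET (Eu-labeled anti-mouse IgG/anti-phosphoserine antibody to streptavidin-XL665) after 1 h at 22 °C. IC50 from 4-parameter logistic fit.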

HeLa cells = test: Proliferation assay (HeLa cell line); assay type: cell-based; conditions: read-out: Biological Assay 2: Proliferation assay (HeLa cell line) median IC50
Method: Cultivated tumor cells (cells were ordered from ATCC, except HeLa-MaTu and HeLa-MaTu-ADR, which were ordered from EPO-GmbH, Berlin) were plated at a density of 1000 to 5000 cells/well, depending on the growth rate of the respective cell line, in a 96-well multititer plate in 200 μL of their respective growth medium supplemented 10% fetal calf serum. After 24 hours, the cells of one plate (zero-point plate) were stained with crystal violet (see below), while the medium of the other plates was replaced by fresh culture medium (200 μl), to which the test substances were added in various concentrations (0 μM, as well as in the range of 0.001-10 μM; the final concentration of the solvent dimethyl sulfoxide was 0.5%). The cells were incubated for 4 days in the presence of test substances. Cell proliferation was determined by staining the cells with crystal violet: the cells were fixed by adding 20 μl/measuring point of an 11% glutaric aldehyde solution for 15 minutes at room temperature. After three washing cycles of the fixed cells with water, the plates were dried at room temperature. The cells were stained by adding 100 μl/measuring point of a 0.1% crystal violet solution (pH 3.0). After three washing cycles of the stained cells with water, the plates were dried at room temperature. The dye was dissolved by adding 100 μl/measuring point of a 10% acetic acid solution. […] The change of cell number, in percent, was calculated by normalization of the measured values to the aborbtion values of the zero-point plate (=0%) and the absorbtion of the untreated (0 μm) cells (=100%). The IC50 values were determined by means of a 4 parameter fit using the company's own software.

[2] = Homo sapiens, 96 h, 4 days, crystal violet

Compound	IC50 [1]	IC50 (HeLa cells; Homo sapiens, 96 h) [nM]	IC50 (HeLa cells; [2]) [nM]	IC50 (HeLa cells; 4 days, crystal violet) [nM]
CCOC(=O)C(C)(C)c1cccc(Cn2nc(-c3ncc(OC)c(Nc4ccncc4)n3)c3ccccc32)c1 [Example 2-41-1, ethyl 2-[3-({3-[5-methoxy-4-(pyridin-4-ylamino)pyrimidin-2-yl]-1H-indazol-1-yl}methyl)phenyl]-2-methylpropanoate]	150 nM	7900		
COc1cnc(-c2nn(Cc3ccc(C#N)cc3)c3ccccc23)nc1Nc1ccncc1 [Example 2-42-1, 4-({3-[5-methoxy-4-(pyridin-4-ylamino)pyrimidin-2-yl]-1H-indazol-1-yl}methyl)benzonitrile]	190 nM		≥ 10000	
COc1cnc(-c2nn(Cc3ccc(S(=O)(=O)N4CCOCC4)cc3)c3ccccc23)nc1Nc1ccncc1 [Example 2-43-1, 5-methoxy-2-{1-[4-(morpholin-4-ylsulfonyl)benzyl]-1H-indazol-3-yl}-N-(pyridin-4-yl)pyrimidin-4-amine]	1200 nM		≥ 10000	
COc1cnc(-c2nn(Cc3c(F)ccc(C)c3F)c3ccccc23)nc1Nc1ccncc1 [Example 2-48-1, 2-[1-(2,6-difluoro-3-methylbenzyl)-1H-indazol-3-yl]-5-methoxy-N-(pyridin-4-yl)pyrimidin-4-amine]	5.5 nM	≥ 10000		
COc1cnc(-c2nn(Cc3c(F)cc(C(N)=O)cc3F)c3ccccc23)nc1Nc1ccncc1 [Example 2-50-1, 3,5-difluoro-4-({3-[5-methoxy-4-(pyridin-4-ylamino)pyrimidin-2-yl]-1H-indazol-1-yl}methyl)benzamide]	11 nM	≥ 10000		
COc1cnc(-c2nn(Cc3c(F)cc(OCCOC(C)=O)cc3F)c3ccccc23)nc1Nc1ccncc1 [Example 2-51-1, 2-[3,5-difluoro-4-({3-[5-methoxy-4-(pyridin-4-ylamino)pyrimidin-2-yl]-1H-indazol-1-yl}methyl)phenoxy]ethyl acetate]	10 nM	2700		
CCCOc1cc(F)c(Cn2nc(-c3ncc(OC)c(Nc4ccncc4)n3)c3ccccc32)c(F)c1 [Example 2-52-1, 2-[1-(2,6-difluoro-4-propoxybenzyl)-1H-indazol-3-yl]-5-methoxy-N-(pyridin-4-yl)pyrimidin-4-amine]	11 nM	2100		
CCOc1cc(F)c(Cn2nc(-c3ncc(OC)c(Nc4ccncc4)n3)c3ccccc32)c(OC)c1 [Example 2-53-1]	83 nM			3400
CCOc1cc(F)c(Cn2nc(-c3ncc(O)c(Nc4ccncc4)n3)c3ccccc32)c(F)c1 [Example 3-1, 2-[1-(4-ethoxy-2,6-difluorobenzyl)-1H-indazol-3-yl]-4-(pyridin-4-ylamino)pyrimidin-5-ol]	4.7 nM	≥ 10000		
COc1ccc(Cn2nc(-c3ncc(O)c(Nc4ccncc4)n3)c3ccccc32)cc1 [Example 3-2, 2-[1-(4-methoxybenzyl)-1H-indazol-3-yl]-4-(pyridin-4-ylamino) pyrimidin-5-ol]	9.8 nM	≥ 10000		
Oc1cnc(-c2nn(Cc3ccccc3F)c3ccccc23)nc1Nc1ccncc1 [Example 3-3, 2-[1-(2-fluorobenzyl)-1H-indazol-3-yl]-4-(pyridin-4-ylamino)pyrimidin-5-ol]	15 nM	≥ 10000		
Oc1cnc(-c2nn(Cc3ccc(F)cc3)c3ccccc23)nc1Nc1ccncc1 [Example 3-4, 2-[1-(4-fluorobenzyl)-1H-indazol-3-yl]-4-(pyridin-4-ylamino) pyrimidin-5-ol]	48 nM		≥ 10000	
CCOc1cc(F)c(Cn2nc(-c3ncc(OCC4(CO)COC4)c(Nc4ccncc4)n3)c3ccccc32)c(F)c1 [Example 4-1, {3-[({2-[1-(4-ethoxy-2,6-difluorobenzyl)-1H-indazol-3-yl]-4-(pyridin-4-ylamino)pyrimidin-5-yl}oxy)methyl]oxetan-3-yl}methanol]	2.4 nM	3500		
NS(=O)(=O)COc1cnc(-c2nn(Cc3ccccc3F)c3ccccc23)nc1Nc1ccncc1 [Example 4-3, 1-({2-[1-(2-fluorobenzyl)-1H-indazol-3-yl]-4-(pyridin-4-ylamino)pyrimidin-5-yl}oxy)methane-sulfonamide]	7.5 nM	14000		
Fc1ccccc1Cn1nc(-c2ncc(OCCc3nnn[nH]3)c(Nc3ccncc3)n2)c2ccccc21 [Example 4-5-1, 2-[1-(2-fluorobenzyl)-1H-indazol-3-yl]-N-(pyridin-4-yl)-5-[2-(1H-tetrazol-5-yl)ethoxy] pyrimidin-4-amine]	18 nM		≥ 10000	
CN(C)CCOc1cnc(-c2nn(Cc3ccc(F)cc3)c3ccccc23)nc1Nc1ccncc1 [Example 4-6, 5-[2-(dimethyl-amino)ethoxy]-2-[1-(4-ftuorobenzyl)-1H-indazol-3-yl]-N-(pyridin-4-yl)pyrimidin-4-amine]	29 nM	3600		
Fc1ccccc1Cn1nc(-c2ncc(OCc3nnn[nH]3)c(Nc3ccncc3)n2)c2ccccc21 [Example 4-7, 2-[1-(2-fluorobenzyl)-1H-indazol-3-yl]-N-(pyridin-4-yl)-5-(1H-tetrazol-5-ylmethoxy) pyrimidin-4-amine]	35 nM		≥ 10000	
CCOc1cc(F)c(Cn2nc(-c3ncc(OCCOC)c(Nc4ccncc4)n3)c3ccccc32)c(F)c1 [Example 4-10, 2-[1-(4-ethoxy-2,6-difluorobenzyl)-1H-indazol-3-yl]-5-(2-methoxyethoxy)-N-(pyridin-4-yl)pyrimidin-4-amine]	9 nM	4400		
COCc1noc(COc2cnc(-c3nn(Cc4ccccc4F)c4ccccc34)nc2Nc2ccncc2)n1 [Example 4-13, 2-[1-(2-fluorobenzyl)-1H-indazol-3-yl]-5-{[3-(methoxymethyl)-1,2,4-oxadiazol-5-yl]methoxy}-N-(pyridin-4-yl)pyrimidin-4-amine]	76 nM and 7.6 nM	8000		
CCOC(=O)COc1cnc(-c2nn(Cc3c(F)cc(OCC)cc3F)c3ccccc23)nc1Nc1ccncc1 [Example 4-14, ethyl ({2-[1-(4-ethoxy-2,6-difluorobenzyl)-1H-indazol-3-yl]-4-(pyridin-4-ylamino)pyrimidin-5-yl}oxy)acetate]	12 nM		≥ 10000	
CCOc1cc(F)c(Cn2nc(-c3ncc(OCC(=O)N4CC(F)C4)c(Nc4ccncc4)n3)c3ccccc32)c(F)c1 [Example 4-21, 2-({2-[1-(4-ethoxy-2,6-difluorobenzyl)-1H-indazol-3-yl]-4-(pyridin-4-ylamino)pyrimidin-5-yl}oxy)-1-(3-fiuoroazetidin-1-yl)ethanone]	7.8 nM	3800		
CCOc1cc(F)c(Cn2nc(-c3ncc(OCCNC(=O)OC(C)(C)C)c(Nc4ccncc4)n3)c3ccccc32)c(F)c1 [Example 4-23, tert-butyl [2-({2-[1-(4-ethoxy-2,6-difluorobenzyl)-1H-indazol-3-yl]-4-(pyridin-4-ylamino)pyrimidin-5-yl}oxy)ethyl]carbamate]	9.3 nM		4900	
CCOc1cc(F)c(Cn2nc(-c3nccc(Nc4ccncc4)n3)c3ccccc32)c(F)c1 [Example 5-1, 2-[1-(4-ethoxy-2,6-difluorobenzyl)-1H-indazol-3-yl]-N-(pyridin-4-yl)pyrimidin-4-amine]	5.2 nM	1400		
Fc1ccccc1Cn1nc(-c2nccc(Nc3ccncc3)n2)c2ccccc21 [Example 5-3, 2-[1-(2-fluorobenzyl)-1H-indazol-3-yl]-N-(pyridin-4-yl)pyrimidin-4-amine]	28 nM	7400		
COc1cnc(-c2nn(Cc3c(F)cc(C4CC4)cc3F)c3ccccc23)nc1Nc1ccncc1 [Example 6-1, 2-[1-(4-cyclopropyl-2,6-difluorobenzyl)-1H-indazol-3-yl]-5-methoxy-N-(pyridin-4-yl)pyrimidin-4-amine]	3.9 nM		3100	
COc1cnc(-c2nn(Cc3c(F)cc(C(C)=O)cc3F)c3ccccc23)nc1Nc1ccncc1 [Example 7-1, 1-[3,5-difluoro-4-({3-[5-methoxy-4-(pyridin-4-ylamino)pyrimidin-2-yl]-1H-indazol-1-yl}methyl)phenyl]ethanone]	3 nM	4400		
COc1cnc(-c2nn(Cc3c(Cl)ccc(CO)c3Cl)c3ccccc23)nc1Nc1ccncc1 [Example 8-1, [2,4-dichloro-3-({3-[5-methoxy-4-(pyridin-4-ylamino)pyrimidin-2-yl]-1H-indazol-1-yl}methyl)phenyl]methanol]	7.4 nM			3200
COc1cnc(-c2nn(Cc3cccc(CCO)c3)c3ccccc23)nc1Nc1ccncc1 [Example 8-2, 2-[3-({3-[5-methoxy-4-(pyridin-4-ylamino)pyrimidin-2-yl]-1H-indazol-1-yl}methyl)phenyl] ethanol]	21 nM		5500	
